# Patent US11442059B2, “Method for treating a chronic itch condition by administering small molecule MrgprX4 antagonists” (The Johns Hopkins University, priority 2017, dated 2022)
# Assays:
# MRGPRX4 = MRGPRX4 (Homo sapiens, UniProt Q96LA9); assay: Cell membrane chromatography, MRGPRX4/CMC column; assay type: binding; design: expressed in transfected cells; whole cells or crude membrane fraction
# Protocol: CMC analysis was performed with a Shimadzu LC-2010A apparatus that consisted of pumps, degasser, autosampler, column oven, and a diode-array detector (Shimadzu, Kyoto, Japan). The data were acquired by the Lab-solution program (Shimadzu). The mobile phase consisted of phosphate-buffered saline (PBS; 5 mM, pH 7.4) and was delivered at a flow rate of 0.2 ml/min. The stock solutions (100 μM) of lamotrigine were prepared by separately dissolving the standard drugs in methanol. Standard solutions at various concentrations were prepared by diluting the stock solutions with the mobile phase. The MRGPRX2/CMC and MRGPRX4/CMC column was prepared as follows. Briefly, MRGPRX4-expressed HEK293 cells (1×10^8) were harvested and centrifuged (1000 g, 10 min, at 4° C.). Cells were washed with physiological saline (pH=7.4) by centrifugation at 1000 g for 10 min at 4° C. […] KD value of lamotrigine was determined by means of the MRGPRX4/CMC system as follows. […] This mobile phase with different concentrations of each compound was separately pumped through the MRGPRX4/CMC column at a flow rate of 0.2 ml min^−1 under the gradient program and the breakthrough curves of the compound with different concentrations were recorded. […] Moreover, KD could be determined by calculating the ratio of the intercept to the slope, and [R]s was obtained from the inverse of the intercept.
# mouse Mrgpra1 = molecular target: T1, mouse Mrgpra1 (Mus musculus, UniProt Q91WW5); assay: Ca2+ imaging / EC50 determination in HEK293 cells expressing Mrgpra1; assay type: cell-based
# T1 construct: expressed in transfected cells; host or cells: HEK293
# T1 sequence (Q91WW5 1-304): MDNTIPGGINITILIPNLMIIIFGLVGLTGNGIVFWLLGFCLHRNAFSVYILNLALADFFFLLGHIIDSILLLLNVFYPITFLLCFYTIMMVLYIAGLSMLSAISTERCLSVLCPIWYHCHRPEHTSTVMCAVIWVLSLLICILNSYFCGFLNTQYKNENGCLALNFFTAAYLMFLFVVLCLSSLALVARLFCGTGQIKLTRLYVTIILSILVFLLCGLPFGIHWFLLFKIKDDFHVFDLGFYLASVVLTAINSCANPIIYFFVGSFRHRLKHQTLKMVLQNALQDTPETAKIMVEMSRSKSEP
# Protocol: Lamotrigine (LTG), allopurinol, carbamazepine and oxcarbazepine (all from Sigma) were prepared fresh on the day of the experiment. These drugs were dissolved into dimethyl sulfoxide (DMSO) first, and then were diluted at least 10000× into calcium imaging buffer before use. The final concentrations of drugs for each experiment were indicated in the corresponding figure legend.
# In initial experiments, HEK293 cells were plated on 100 μg/ml poly-D-lysine coated glass cover slips, and transiently transfected with vector containing Mrgprs gene, after 24-48 hours of culture, cells were loaded with Fura 2-acetomethoxy ester calcium indicator (0.5 μM, Molecular Probes) along with pluronic F-127 dispersing agent (0.1%, Molecular Probes) for 30 minutes in the dark at 37° C., then washed with calcium imaging buffer (CIB; NaCl 125 mM, KCl 3 mM, CaCl2 2.5 mM, MgCl2 0.6 mM, HEPES 10 mM, glucose 20 mM, NaHCO3 1.2 mM, sucrose 20 mM, brought to pH 7.4 with NaOH). Drugs were added to Fura 2-loaded cells and intracellular free calcium was measured using 340 nm and 380 nm excitation wavelengths with emission measured at 520 nm with a microscope based imaging system (Nikon Eclipse TE200). Changes in emission fluorescence ratios at 340/380 nm excitation were continuously monitored at 1 second intervals. Later, experiments were performed using Mrgpra1-GFP, Mrgprc11-GFP and MRGPRX4-GFP stable cell lines to confirm the findings obtained from the transiently expressing cells.
# Mrgpra1 or both wild-type and mutant MRGPRX4 stably expressed HEK cells were plated overnight in 100 μl culture media on 96-well plates. […] After 1 hour of incubation at 37° C., cells were allowed to recover for 10 minutes in the dark at room temperature prior to performing intracellular calcium mobilization assay in a FLEXSTATION® multi-mode plate reader (Molecular Devices). […] Responses were determined by subtracting the minimum signal (at the basal level before adding the drug) from the maximum signal (obtained after stimulating with the drug). […]
# Sequence of MRGPRX4 (Q96LA9 whole entry): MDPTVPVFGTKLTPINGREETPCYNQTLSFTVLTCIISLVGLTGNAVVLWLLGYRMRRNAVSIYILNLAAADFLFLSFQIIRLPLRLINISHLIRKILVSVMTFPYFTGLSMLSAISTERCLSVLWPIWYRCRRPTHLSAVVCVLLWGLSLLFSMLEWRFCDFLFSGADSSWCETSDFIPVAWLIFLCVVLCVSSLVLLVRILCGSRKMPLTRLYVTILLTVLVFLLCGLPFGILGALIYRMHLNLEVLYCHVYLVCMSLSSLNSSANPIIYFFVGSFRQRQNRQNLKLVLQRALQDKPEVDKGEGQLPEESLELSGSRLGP
compound,measurement,setting,value
"Nc1nnc(-c2cccc(Cl)c2Cl)c(N)n1 [LTG, Lamotrigine]",Retention time on MRGPRX4/CMC column,MRGPRX4; affinity chromatography elution profile,16.7 min
same,Kd,"MRGPRX4; regression 1/[LR]s versus 1/[L]m, n=5, read-out: KD (MRGPRX4/CMC breakthrough curves)",0.417 µM
same,EC50,"mouse Mrgpra1; HEK293 cells, Ca2+ assay",~30 µM
same,activation of mouse Mrgpra1 (Ca2+ imaging),mouse Mrgpra1; Mrgprs individually expressed in HEK293 cells,specifically activated
